Laboratory results: patent US12584916B2, “Method for measuring the modulation of the activation of a G protein-coupled receptor with GTP analogues” (CISBIO BIOASSAYS, priority 2019, dated 2026)

B1: DSV36S: anti-G-alphai antibody of Cisbio Bioassays, VH SEQ ID NO: 15 and VL SEQ ID NO: 16; used labeled with d2 or Lumi4Tb (antibody, V domains shown)
VH: EVQLQQSGAELVRPGALVKLSCKASGFNIKDYYMHWVKQRPEQGLEWIGWIDPENGNTIYDPKFQGKASITADTSSNTAYLQLSSLTSEDTAVYYCTRGGGYYSDWYFDVWGAGTTVTVSS
VL: QIVLTQSPAIMSASPGEKVTMTCSASSSVSYMHWYQQKSGTSPKRWIYDTSKLASGVPARFSGSGSGTSYSLTISSMEAEDAATYYCQQWSSNPPITFGAGTKLELK
modifications: d2 or Lumi4Tb label; Heavy chain variable domain (VH); Light chain variable domain (VL)

Experiments:
[1] = target: T1, Delta Opioid GPCR (Homo sapiens, UniProt P41143); experiment: Activation test according to format 2A on Delta Opioid GPCR (antagonist mode); assay type: biochemical; details: Example 15; SNC162 200 nM fixed; increasing antagonist concentration; GTPgN-octyl-C2 6 nM + DSV36S-d2 10 nM; CHO-DOR membranes; NaCl 300 mM; GDP 0.5 μM
T1 construct: purchased Perkin Elmer or Euroscreen
T1 sequence (P41143 whole entry): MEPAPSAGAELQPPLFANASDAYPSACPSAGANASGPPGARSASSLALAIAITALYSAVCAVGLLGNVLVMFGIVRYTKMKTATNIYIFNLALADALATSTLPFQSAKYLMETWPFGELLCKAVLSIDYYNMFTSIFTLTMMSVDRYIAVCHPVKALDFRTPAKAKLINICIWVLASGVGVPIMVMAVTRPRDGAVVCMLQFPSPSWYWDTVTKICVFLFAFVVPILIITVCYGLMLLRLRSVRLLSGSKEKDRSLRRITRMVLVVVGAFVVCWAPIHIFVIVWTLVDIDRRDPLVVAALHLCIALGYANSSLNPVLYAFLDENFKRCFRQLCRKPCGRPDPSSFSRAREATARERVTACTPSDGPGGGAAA
Method: All the reagents were diluted in TrisHCl buffer 50 mM pH 7.4, MgCl2 10 mM, BSA 0.1%, NaCl 10 mM or 100 mM or 300 mM or 500 mM (concentration specified in the legend of each figure), 0 or 0.5 or 1 μM GDP (concentration specified in the legend of each figure). The membranes were prepared 4× for distributing 1 or 10 μg/well (amount specified in the legend of each figure). The nucleotide GTPgS (nonspecific signal condition) was prepared 6.67× to obtain a final concentration in the wells of 100 μM. The test compounds (agonists or antagonists) were prepared 10× to obtain the final concentrations in the wells mentioned in the diagrams. […]
• Membranes expressing the GPCR and the G protein: 5 μL • Buffer or GTPgS nucleotide (for the nonspecific signal condition): 3 μL • Nonhydrolyzable/slowly hydrolyzable GTP analogue—donor or acceptor: 5 μL • anti G-alphai-donor or acceptor ligand: 5 μL • Buffer or test compounds (agonists and/or antagonists): 2 μL. The nonspecific signal (fluorescence background noise) was measured with wells containing an excess of GTPgS (100 μM). Reading the HTRF Signal […]
From the raw signals at 665 nm (for red acceptor—Cy5) or 520 nm (for green acceptors—AF488 or Fluorescein) and 620 nm, the HTRF Ratio was calculated from the following formula: HTRF Ratio=Signal at 665 nm or Signal at 520 nm/Signal at 620 nm*10.000. […]

[2] = target: switch II domain of the alphai G-protein (Homo sapiens, UniProt P63096); experiment: Binding site of the anti-G-alphai antibodies
Chain of switch II domain of the alphai G-protein (P63096 whole entry, the tested form may be a part): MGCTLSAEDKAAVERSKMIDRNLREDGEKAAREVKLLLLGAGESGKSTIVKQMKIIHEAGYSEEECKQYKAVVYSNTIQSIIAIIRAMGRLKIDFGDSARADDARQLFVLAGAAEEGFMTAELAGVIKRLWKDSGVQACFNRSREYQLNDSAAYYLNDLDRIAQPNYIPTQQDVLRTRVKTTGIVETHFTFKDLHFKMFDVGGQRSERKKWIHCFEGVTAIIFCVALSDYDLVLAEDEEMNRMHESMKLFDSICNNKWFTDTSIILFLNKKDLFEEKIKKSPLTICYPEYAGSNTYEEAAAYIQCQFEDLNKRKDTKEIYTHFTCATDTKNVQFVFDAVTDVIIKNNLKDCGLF

| Molecule | inhibition of activation by agonist SNC162 (decrease in the TR-FRET signal, HTRF Ratio) [1] | binding site on the alphai G-protein [2] |
| --- | --- | --- |
| Oc1ccc2c3c1O[C@H]1c4[nH]c5ccccc5c4C[C@@]4(O)[C@@H](C2)N(CC2CC2)CC[C@]314 [Naltrindole] | inhibited | – |
| B1 | – | bind at the level of the switch II domain of the alphai G-protein |
